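Step 1: Grow cells in 96-well plates. Step 2: Expose to compound for 48 hours at 5 concentrations. Step 3: Interpolate endpoints linearly; if unreached, use highest concentration. GI50 is the concentration that inhibits growth by half. TGI denotes the concentration required for complete inhibition of growth.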
Experiments:
Test in all cases: inhibition of tumour cell growth, NCI panel, 48 h
[1] = test system: SK-MEL-5 melanoma
[2] = test system: M14 melanoma
[3] = test system: HOP-62 NSCLC
[4] = test system: IGROV1 ovarian
[5] = test system: K-562 leukemia
[6] = test system: U251 CNS
[7] = test system: UACC-62 melanoma
[8] = test system: RXF 393 renal
[9] = test system: MCF7 breast
[10] = test system: T-47D breast

Row | SMILES | TGI [1] | TGI [2] | TGI [3] | TGI [4] | TGI [5] | TGI [6] | TGI [7] | TGI [8] | GI50 [9] | TGI [9] | GI50 [1] | GI50 [3] | GI50 [8] | GI50 [10] | TGI [10] | GI50 [4] | GI50 [6] | GI50 [7] | GI50 [2] | GI50 [5]
1 | CCN(CC)CCC(=O)N1CCc2c([nH]c3ccccc23)C1c1cccnc1 (stereo unspecified) | > 100 µM | > 100 µM | > 100 µM | > 100 µM | > 100 µM | > 100 µM | > 100 µM | – | – | – | – | – | – | – | – | – | – | – | – | –
2 | O=c1[nH]c(=O)n(C2CC(O)C(CO)O2)cc1C#Cc1cc(C(F)(F)F)cc(C(F)(F)F)c1 (stereo unspecified) | > 55.6 µM | > 46.5 µM | > 100 µM | > 100 µM | > 100 µM | > 100 µM | > 31.6 µM | 39 µM | – | – | – | – | – | – | – | – | – | – | – | –
3 | O=C(NCC(=O)N1CC[C@H](NC2CCC(O)(c3ccc(-c4ncccn4)cn3)CC2)C1)c1cccc(C(F)(F)F)c1 (stereo partly specified) | 46.6 µM | – | > 100 µM | > 100 µM | – | > 100 µM | > 100 µM | > 100 µM | 41.8 µM | > 100 µM | 18.2 µM | 95.1 µM | 61.7 µM | 22.9 µM | > 100 µM | > 100 µM | 91.8 µM | > 100 µM | – | –
4 | N#CCCN(CCC#N)c1ccc(/C=N\c2nc(-c3ccccc3)cs2)cc1 | > 100 µM | > 100 µM | > 100 µM | > 100 µM | > 100 µM | – | > 100 µM | > 100 µM | – | – | – | – | – | – | – | – | – | – | – | –
5 | C[N+](C)(C)Cc1c(CC#N)[nH]c2ccccc12 | > 100 µM | > 100 µM | > 100 µM | > 100 µM | > 100 µM | > 100 µM | > 100 µM | > 100 µM | – | – | – | – | – | – | – | – | – | – | – | –
6 | COc1cc(C2CC(c3ccc(Nc4ccnc5cc(Cl)ccc45)cc3)=NN2C=O)cc(OC)c1OC (stereo unspecified) | 6.28 µM | 13.9 µM | 20.8 µM | > 100 µM | – | 4.76 µM | 6.87 µM | 8.01 µM | 3.23 µM | > 100 µM | 1.98 µM | 4.13 µM | 2.22 µM | 2.33 µM | 7.4 µM | 22.3 µM | 2.06 µM | 2.2 µM | 3.75 µM | –
7 | COc1cc2c(cc1OCCCCCn1c(-c3ccco3)nc3ccccc31)N=C[C@@H]1CCCN1C2=O | < 0.01 µM | 0.0236 µM | 1.1 µM | 13.2 µM | > 100 µM | 11.2 µM | < 0.0106 µM | – | < 0.01 µM | 19 µM | < 0.01 µM | < 0.01 µM | – | < 0.01 µM | – | < 0.01 µM | < 0.01 µM | < 0.01 µM | < 0.01 µM | < 0.01 µM
8 | Oc1ccc2c3c1OC1C(=NN=C4CCC5(O)C6Cc7ccc(O)c8c7C5(CCN6CC5CC5)C4O8)CCC4(O)C(C2)N(CC2CC2)CCC314 (stereo unspecified) | 34.8 µM | 33.4 µM | > 65.7 µM | > 100 µM | 48.2 µM | 32.1 µM | 41.2 µM | > 100 µM | – | – | – | – | – | – | – | – | – | – | – | –
9 | CN(C)c1ccc(/C=C/c2ccnc3ccccc23)cc1N | 11.5 µM | 25.1 µM | 28.4 µM | – | 23.6 µM | 40.8 µM | 25.9 µM | – | – | 8.29 µM | – | – | – | – | 5.36 µM | – | – | – | – | –
10 | O=C1c2cccc3cccc(c23)C(=O)N1CCCCN1CCN(CCCCOc2ccc(-c3nc4ccc(N5CCOCC5)cc4[nH]3)cc2)CC1 | > 100 µM | > 100 µM | > 100 µM | > 100 µM | > 100 µM | > 100 µM | > 100 µM | – | > 100 µM | > 100 µM | 9.1 µM | > 100 µM | – | 15.3 µM | > 100 µM | 61.9 µM | 7.93 µM | > 100 µM | > 100 µM | 4.35 µM
11 | Oc1ccccc1Nc1nc2ccccc2c2occc12 | 19.4 µM | 23.8 µM | 21.7 µM | 15.8 µM | > 100 µM | 24.7 µM | 21.9 µM | – | 25.2 µM | 51.8 µM | 6.1 µM | 7.69 µM | – | 10.1 µM | 24.1 µM | 0.0614 µM | 12.3 µM | 10.3 µM | 11.6 µM | > 100 µM
12 | CCOP(=O)(OCC)/C(C#N)=C/c1ccc[nH]1 | > 100 µM | > 100 µM | > 100 µM | – | > 100 µM | > 100 µM | > 100 µM | > 100 µM | – | – | – | – | – | – | – | – | – | – | – | –
13 | COc1cc(-n2cc(-c3ccc(F)cc3)[nH]c2=S)cc(OC)c1OC | > 100 µM | – | > 100 µM | > 100 µM | > 100 µM | > 100 µM | > 100 µM | > 100 µM | 55.9 µM | > 100 µM | > 100 µM | > 100 µM | 71.4 µM | 72.4 µM | > 100 µM | 41.6 µM | > 100 µM | > 100 µM | – | > 100 µM
14 | CCOCC(=O)N[C@H]1CCc2cc(OC(=O)COCC)c(OC)c(OC)c2-c2ccc(SC)c(=O)cc21 | – | 0.0762 µM | > 100 µM | > 100 µM | 0.0691 µM | – | > 100 µM | > 100 µM | – | > 100 µM | – | – | – | – | – | 0.0382 µM | 0.0154 µM | – | 0.0134 µM | –
15 | CCC[CH2][Sn]1([CH2]CCC)[O]C(=O)c2cccc(OC)c2[O]1 | 2.11 µM | 1.56 µM | 3.75 µM | 2.15 µM | 1.16 µM | 0.751 µM | 1.18 µM | – | – | – | 0.722 µM | 2.27 µM | – | – | – | 0.755 µM | 0.237 µM | 0.312 µM | 0.422 µM | 0.0719 µM
16 | Cn1cnc([N+](=O)[O-])c1Sc1nc2cccnc2s1 | 35.7 µM | 26.8 µM | > 100 µM | 33 µM | – | 65.8 µM | 32 µM | 32.9 µM | – | – | – | – | – | – | – | – | – | – | – | –
17 | COC(=O)c1c(C)cc2c(c1O)C1(O)C(=O)c3cc4c(c(O)c3C(=O)C1(OC)C(O)C2)C(=O)C=C(NC1OC(C)C(OC)C(O)C1OC)C4=O (stereo unspecified) | – | 0.262 µM | 1.26 µM | 0.0635 µM | 0.178 µM | 0.663 µM | 0.0502 µM | 0.0525 µM | – | – | – | – | – | – | – | – | – | – | – | –
18 | O=C(Nc1ccc([N+](=O)[O-])cc1C(=O)O)c1ccc([N+](=O)[O-])cc1 | > 100 µM | > 100 µM | > 100 µM | > 100 µM | 32.3 µM | > 100 µM | > 100 µM | – | – | – | – | – | – | – | – | – | – | – | – | –
19 | O=C1C2C(C(=O)N1c1ccccc1)C1(c3ccccc3)OC2(c2ccccc2)c2ccccc21 (stereo unspecified) | > 100 µM | > 100 µM | > 100 µM | > 100 µM | > 100 µM | > 100 µM | > 100 µM | > 100 µM | – | – | – | – | – | – | – | – | – | – | – | –

Source: PubChem BioAssay (NCI)
